{"source": "patent US20110003844A1", "about": "“REGULATION OF CARDIAC CONTRACTILITY AND HEART FAILURE PROPENSITY” (Children's Hospital Medical Center, priority 2003, published 2011)", "key": {"[1]": {"tested_on": "normal Sprague-Dawley and Lewis rats", "test": "in vivo cardiac contractility and hemodynamics in anesthetized normal rats", "design": "species or system rat", "procedure": "Selected PKCα inhibitors are evaluated in both naive rats and rats with myocardial infarction (MI) for effects on cardiac contractility and hemodynamics. The effects of inhibitors on cardiac contractility and hemodynamics are evaluated in naïve and MI rats as follows. The animals are anesthetized with isoflurane. A femoral artery is isolated and cannulated for the measurement of systemic blood pressure. A jugular vein is isolated and cannulated for the intravenous infusion of inhibitor. The right carotid artery is isolated and a Millar conductance catheter is inserted to the left ventricle (LV) of the heart. The LV systolic pressure, end-diastolic pressure, +maximum dP/dt, −minimum dP/dt, and heart rate are derived from the LV pressure waveform. Mean arterial blood pressure is derived from the systemic blood pressure waveform. Data are recorded continuously and derived using computerized data acquisition software (Notocord or Powerlab). After a period of stabilization, PKCα inhibitors are infused at the following infusion doses in naïve rats: 0.1, 0.3, 1.0, 3.0, 10, 30, 100, 300 and 1000 nmol/kg/min. The infusion of each dose is allowed to run for at least five minutes. In MI rats, the infusion doses are as follows: 10, 30, 100, 300, and 1000 nmol/kg/min for at least five minutes. Equivalent infusion volumes are administered to separate, vehicle-control naïve and MI animals. At the end of the test infusions, 5.0 μg/kg/min of dobutamine is infused."}, "[2]": {"tested_on": "adult wildtype mouse hearts", "test": "ex vivo working heart preparation, Ro-32-0432 infusion", "procedure": "Mice from all genotypes or treatment groups were anesthetized with isoflurane, and echocardiography was performed using a Hewlett Packard 5500 instrument with a 15-MHZ microprobe. Echocardiographic measurements were taken on M-mode in triplicate from four separate mice per group. The isolated ejecting mouse heart preparation used in the present study has been described in detail previously (Gulick et al. (1997) Circ. Res. 80:655-664), as was the close-chested working heart model employed here (Lorenz et al. (1997) Am. J. Physiol. 272:H1137-H1146).\nThe relatively selective PKCα/β inhibitory compound Ro-32-0432 [2-{8-[(Dimethylamino)methyl]-6,7,8,9-tetrahydropyrido[1,2-a]indol-3-yl}-3-(1-methylindol-3-yl)maleimide, HCl Salt] [3-{8-[(Dimethylamino)methyl]-6,7,8,9-tetrahydropyrido[1,2-a]indol-10-yl}-4-(1-methylindol-3-yl)-1H -pyrrole-2,5-dione, HCl Salt] was used as a means of directly examining the effects of acute PKCα inhibition on cardiac function and contractility using an ex vivo working heart preparation. The working heart preparation separates the inherent pump function of the heart from potential alterations in total vascular resistance as might occur if the drug were infused in vivo.\nWorking adult wildtype mouse hearts were infused with vehicle control (10% DMSO) or Ro-32-0432 in 10% DMSO at concentrations ranging between 4×10^−10 through 4'10^−6M. Four animals were analyzed in the Ro-32-0432 group and compared with three animals in the vehicle control group. […] The average heart rate of the vehicle and drug treated groups was 351+/=3 and 292+/−6 beats per minute, respectively. […] The approximate 20% change in acute contractile performance in the Ro-32-0432 treated group is similar to the increase in cardiac function observed in PKCα null mice."}, "[3]": {"tested_on": "isolated cardiac myocytes and whole guinea-pig hearts", "details": "cited from earlier work"}, "PKCα−/− hearts": {"tested_on": "PKCα−/− hearts", "test": "ex vivo working heart preparation, acute PMA infusion, PKCα null hearts", "design": "species or system mouse", "procedure": "(§1) Hearts were isolated from four wild-type and four PKCα −/− (PKCα null) transgenic mice. The isolated hearts were infused with PMA at 9 different concentrations ranging from 8×10^−11 through 8×10^−7 M. Acute PMA infusion of each concentration occurred for a 7 minute period. The hearts were measured for maximal and minimal dP/dt in systole and diastole respectively."}, "[4]": {"tested_on": "isolated ventricular myocytes from adult rats", "details": "10^−7 M, 1 Hz, 1 mM calcium; cited from earlier work"}, "PKCα": {"biological_target": "T1, PKCα (Rattus norvegicus, UniProt P05696)", "T1 construct": "confocal micrographs of PKCα protein localization in adult rat cardiac myocytes at baseline (PKCα) or after PMA; endogenous in cells; host or cells: adult rat cardiomyocytes in culture", "test": "confocal immunohistochemistry of PKCα localization in adult cardiomyocytes", "type": "cell-based", "details": "adult rat cardiomyocytes in culture, acute PMA stimulation"}, "wildtype mouse hearts": {"tested_on": "wildtype mouse hearts", "test": "ex vivo working heart preparation, acute PMA infusion, wildtype hearts", "procedure": "as §1"}, "PKCα-GFP": {"tested_on": "PKCα-GFP", "test": "translocation of PKCα-GFP indicator polypeptide, confocal microscopy", "type": "cell-based", "details": "neonatal rat cardiomyocytes, PMA 60 minutes", "procedure": "A PKCα indicator was prepared by operably linking a nucleotide sequence encoding PKCα to a nucleotide sequence encoding green fluorescence protein (GFP). An expression cassette comprising the PKCα-GFP nucleotide sequence was prepared. Adenovirus comprising the PKCα-GFP expression cassette was prepared.\nNeonatal rat cardiomyocytes were cultured in plastic dishes and incubated until the appropriate density was reached. The cardiomyocytes were infected with an adenovirus encoding PKCα-GFP. The cultures were incubated for 24 hours. After 24 hours the cells were incubated with either DMSO alone (the vehicle treatment) or DMSO and PMA for 60 minutes. The cells were fixed and examined by confocal microscopy."}, "[5]": {"tested_on": "isolated chicken ventricular myocytes", "details": "1 μM drug; cited from earlier work"}, "MI rats": {"tested_on": "MI rats", "test": "in vivo cardiac contractility in anesthetized rats with myocardial infarction", "design": "species or system rat", "procedure": "Selected PKCα inhibitors are evaluated in both naive rats and rats with myocardial infarction (MI) for effects on cardiac contractility and hemodynamics.\nMale, Sprague-Dawley or Lewis rats weighing between 225-500 gm are anesthetized with isoflurane and an MI is induced as follows. A thoracotomy at the fourth or fifth intercostal space is done, the heart is exposed and the pericardium is opened. A 5-0 suture is placed around the left descending coronary artery 2-4 mm from its origin and permanently tied. The ribs, muscle and skin are separately closed and the animal is allowed to recover. Twenty to twenty-three weeks after surgery the animals are used to evaluate the effects of PKCα inhibitors on cardiac contractility and hemodynamics.\nThe effects of inhibitors on cardiac contractility and hemodynamics are evaluated in naïve and MI rats as follows. The animals are anesthetized with isoflurane. A femoral artery is isolated and cannulated for the measurement of systemic blood pressure. A jugular vein is isolated and cannulated for the intravenous infusion of inhibitor. The right carotid artery is isolated and a Millar conductance catheter is inserted to the left ventricle (LV) of the heart. […] Data are recorded continuously and derived using computerized data acquisition software (Notocord or Powerlab). […]"}, "PKC isoforms": {"tested_on": "PKC isoforms", "details": "cited from earlier work"}, "[6]": {"details": "1000 nmol/kg/min i.v. infusion, 5 min, n=3"}}, "note": "“Also recorded” adds a separate entry of the source. Like-named read-outs stand apart in the source and are kept apart here.", "data": [{"molecule": "CN(C)C[C@@H]1CCn2cc(c3ccccc32)C2=C(C(=O)NC2=O)c2cn(c3ccccc23)CCO1", "note": "[LY333531]", "values": [{"measurement": "maximum dP/dt increase compared to baseline", "setting": "[1]; [6]", "result": 28, "unit": "%"}, {"measurement": "minimum dP/dt increase compared to baseline", "setting": "[1]; [6]", "result": 17, "unit": "%"}, {"measurement": "heart rate", "setting": "[1]; 1000 nmol/kg/min, baseline 315±17, not statistically significant", "result": "294±8", "unit": "beats per minute"}]}, {"molecule": "2-{8-[(Dimethylamino)methyl]-6,7,8,9-tetrahydropyrido[1,2-a]indol-3-yl}-3-(1-methylindol-3-yl)maleimide, HCl Salt [Ro-32-0432]", "values": [{"measurement": "change in acute contractile performance", "setting": "[2]; Ro-32-0432 treated group, similar to PKCα null mice", "result": "~20", "unit": "%"}, {"measurement": "average heart rate of drug treated group", "setting": "[2]; during infusion, 295+/−26 before treatment", "result": "292+/−6 beats per minute"}, {"measurement": "increase in acute contractile function, measured as maximum dP/dt", "setting": "[2]; infused at 4×10^−10 to 4×10^−6 M, 7 min per concentration, values summated, average dosage approx 1×10^−8 M, P<0.05", "result": 20, "unit": "%"}, {"measurement": "increase in left ventricular pressure developed", "setting": "[2]; infused at 4×10^−10 to 4×10^−6 M, values summated, average dosage approx 1×10^−8 M, P<0.05", "result": 20, "unit": "%"}, {"measurement": "acute cardiac contractility upon infusion (FIG. 38)", "setting": "[2]; infusion vs baseline, p<0.05", "result": "statistically significant increase"}]}, {"molecule": "CCCCCCCCCCCCCC(=O)O[C@@H]1[C@@H](C)[C@@]2(O)[C@@H](C=C(CO)C[C@]3(O)C(=O)C(C)=C[C@@H]23)[C@@H]2C(C)(C)[C@]12OC(C)=O", "note": "[PMA, phorbol myristate acetate]", "values": [{"measurement": "inotropic response", "setting": "[3]; 10^−12 M PMA", "result": "significant positive inotropic response"}, {"measurement": "inotropic response", "setting": "[3]; concentrations higher than 10^−10 M PMA", "result": "negative inotropic response"}, {"measurement": "functional performance", "setting": "PKCα−/− hearts; highest concentrations of PMA", "result": "only a mild depression in functional performance"}, {"measurement": "inotropic effect", "setting": "PKCα−/− hearts; low doses of PMA", "result": "immediate positive inotropic effect"}, {"measurement": "twitch amplitude, of control", "setting": "[4]", "result": "approximately 60%"}, {"measurement": "PKCα protein localization", "setting": "PKCα", "result": "rapid translocation"}, {"measurement": "contractile performance (Maximum dP/dt or Minimum dP/dt)", "setting": "wildtype mouse hearts; 8×10^−11 through 8×10^−9 M", "result": "essentially no effect"}, {"measurement": "functional performance", "setting": "wildtype mouse hearts; concentrations higher than 8×10^−9 M", "result": "marked decrease in functional performance"}, {"measurement": "PKCα-GFP localization", "setting": "PKCα-GFP", "result": "highly localized and punctate staining pattern; also recorded: robust redistribution of PKCα-GFP"}, {"measurement": "maximum decrease in the amplitude of cell shortening", "setting": "[5]", "result": 54, "unit": "%"}]}, {"molecule": "[H]/N=C(/N)SCCCn1cc(C2=C(c3cn(C)c4ccccc34)C(=O)NC2=O)c2ccccc21", "note": "[Ro-31-8220]", "values": [{"measurement": "inotropic benefit compared with dobutamine", "setting": "MI rats; dobutamine 5.0 μg/kg/min for 5 minutes", "result": "greater than that seen with dobutamine"}, {"measurement": "percent increase in maximum dP/dt from baseline", "setting": "MI rats; dose dependent i.v. infusion 10-1000 nmol/kg/min, significance (P<0.05) at 300 nmol/kg/min, n=4", "result": 21, "unit": "%"}]}, {"molecule": "CNC[C@@H]1CCn2cc(c3ccccc32)C2=C(C(=O)NC2=O)c2cn(c3ccccc23)CCO1", "note": "[LY338522]", "values": [{"measurement": "inhibition of the PKC isoforms", "setting": "PKC isoforms", "result": "effective in inhibiting the PKC isoforms"}]}]}
